Data: the supplement of paper PMC10307832

Tests used:
Assay in all cases: relative viability (nuclei count vs DMSO), 5 days (fraction); higher = more cells survive
[1] = compound: CCC1=CN=CN=C1N2CCN(CC2)CC3=NC4=C(N3)C=C(C=C4)C(F)(F)F + CC(=O)Nc1cccc(-n2c(=O)n(C3CC3)c(=O)c3c(Nc4ccc(I)cc4F)n(C)c(=O)c(C)c32)c1 [Trametinib] (partner 0.02 µM)
Outline: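 Cells from lung cancer lines were seeded into 1536-well plates and, one day later, dosed by pin tool. Treatments were either a single drug or a fixed dose of an anchor drug with five library-drug doses (not always all listed) in √10 steps. After 5 days, nuclei were stained in a one-step fixation (final 0.05% Triton X-100, 1% formaldehyde, 1 ug/ml Hoechst) and counted on 4× images, and relative viability is the treated-to-vehicle nuclei ratio, as the median of duplicate plates.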

[2] = compound: CCC1=CN=CN=C1N2CCN(CC2)CC3=NC4=C(N3)C=C(C=C4)C(F)(F)F
Outline: (§1)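 Five library-drug doses spaced by √10 were pinned onto vehicle-anchored 1536-well plates of lung cancer cell lines that had been kept overnight at 37 °C. Cells went 5 days without medium change, then were fixed, permeabilised and Hoechst-stained together, imaged at 4× and counted by MetaXpress. Viability is the ratio of treated-well to vehicle-well nuclei, taken as a median over plates. Plates required control CV below 25% and at least one doubling.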

[3] = compound: CCn1c(-c2nonc2N)nc2cnc(Oc3cccc(NC(=O)c4ccc(OCCN5CCOCC5)cc4)c3)cc21
Outline: as §1

Mirin = compound: N=C1NC(=O)/C(=C/c2ccc(O)cc2)S1 [Mirin]
Outline: as §1

Cell Line	relative viability ([1]; first compound 0.04 µM)	relative viability ([1]; first compound 0.1265 µM)	relative viability ([1]; first compound 0.4 µM)	relative viability ([1]; first compound 1.265 µM)	relative viability ([1]; first compound 4 µM)	relative viability ([2]; 0.04 µM)	relative viability ([2]; 0.1265 µM)	relative viability ([2]; 0.4 µM)	relative viability ([2]; 1.265 µM)	relative viability ([2]; 4 µM)	relative viability ([3]; 0.04 µM)	relative viability ([3]; 0.1265 µM)	relative viability ([3]; 0.4 µM)	relative viability ([3]; 1.265 µM)	relative viability ([3]; 4 µM)	relative viability (Mirin; 0.25 µM)	relative viability (Mirin; 0.7906 µM)	relative viability (Mirin; 2.5 µM)	relative viability (Mirin; 7.906 µM)	relative viability (Mirin; 25 µM)
NCI-H838	0.574	0.481	0.455	0.412	0.648	0.997	0.941	0.942	0.828	0.957	0.854	0.517	0.409	0.406	0.319	0.999	0.93	1.02	1.02	0.959
HARA	0.879	0.76	0.454	0.472	0.716	0.891	0.902	0.863	0.654	1.08	1.11	0.782	0.563	0.258	0.28	1.09	0.803	0.918	0.939	0.916
NCI-H23	0.405	0.409	0.396	0.375	0.385	0.852	0.918	0.812	0.742	0.954	1.21	1	0.567	0.674	0.589	1		0.907	0.819	0.907
LCLC-97TM1	0.195	0.164	0.183	0.238	0.2	0.849	0.95	1	1	0.95	1.37	1.1		0.899	1.03	1.1	0.706	1.13	0.621	0.677
LC-2-ad	0.976	0.814	0.938	0.921	0.871	1	0.947	0.973	0.871	0.92	1.06	0.906	0.654	0.525	0.524	1.02	0.848	0.964	0.824	1.04
SW 1573	0.652	0.58	0.513	0.47	0.497	0.925	1.08	0.912	0.858	0.941	1.1	0.992	0.74	0.488	0.338	0.986	0.825	0.986	0.968	0.779
EKVX	0.415	0.384	0.379	0.32	0.309	1.03	0.806	0.933	0.782	1.04	1.24	0.957	0.932	0.87	0.855	0.962	0.905	1.09	0.925	0.986
NCI-H2087	0.172	0.226	0.244	0.215	0.189	1.05	0.958	0.973	0.854	0.716	1.21	0.812	0.844	0.698	0.637	1.01	1	0.983	0.896	1.2
HCC-827	0.483	0.51	0.544	0.497	0.553	1.05	1.04	0.998	0.942	0.988	1.02	0.961	0.911	0.821	0.756	1.03	1.09	1.01	1.02	1.19
NCI-H661	0.638	0.591	0.508	0.471	0.49	0.996	0.973	0.955	0.967	0.971	0.998	0.969	0.957	0.82	0.611	0.988	1.09	1.03	0.974	1.01
CAL-12T	0.256	0.352	0.356	0.267	0.37	0.985	0.941	0.958	0.974	1.01	1.33	1.13	0.927	0.479	0.654	1.07	0.861	1.02	0.982	1.23
NCI-H2342	0.748	0.906	0.826	0.503	0.511	0.936	0.888	0.864	0.543	0.72	1.04	1.05	0.874	0.748	0.804	0.998	1.02	1.03	0.668	0.888
SW 900	0.545	0.679	0.857		0.7	0.842	0.928	0.866	0.626	0.857	0.892	0.946	0.917	0.716	0.83	1	0.773	0.888	0.98	0.869
IA-LM						0.839	0.96	0.891	0.931	0.89	1.34	1.06	0.998	0.952	1.02	0.962	1.07	0.928	0.653	1.18
EPLC-272H	0.289	0.26	0.32	0.284	0.325	0.801	0.979	0.87	0.797	0.793	1.26	1.01	0.873	0.705	0.74	0.944		0.945	0.762	0.721
A-427	0.631	0.731	0.675	0.615	0.637	0.885	0.961	0.857	0.808	0.887	1.23	0.936	0.727	0.587	0.444	0.983	0.716	1.02	0.961	1.03
NCI-H650	0.95	0.996	0.985	0.814	0.856	0.776	0.958	0.994	0.918	0.958	1.1	0.761	0.391	0.359	0.417	1.03	0.737	0.929		1.13
